Consider 20 molecules from publication PMC9967051, “(S)-N-Benzyl-1-phenyl-3,4-dihydroisoqunoline-2(1H)-carboxamide Derivatives, Multi-Target Inhibitors of Monoamine Oxidase and Cholinesterase: Design, Synthesis, and Biological Activity” (Molecules, 2023).

Assay [1] has as its target BChE (Homo sapiens, UniProt P06276). Kind of assay: biochemical. The settings on record: compounds concentration 100 µM; read-out: Inhibition Rate BChE. On the procedure:
Inhibition of AChE and BChE was measured through the spectrophotometric method developed by Ellman’s method with slight modifications. The analysis protocol contained 96-well plates (100 µL per well). Each well involved 20 µL of assay buffer solution, 20 µL of the test sample, and 40 µL of 0.2 U/mL of AChE or BChE. The mixture was incubated for 10 min at 25 °C followed by the addition of substrate (20 µL). For AChE inhibition assay, acetylthiocholine iodide (ATCI, 0.001 mol/L), while for BChE assay, butyrylthiocholine chloride (BTCCl, 0.001 mol/L) was added to it. The mixture was incubated at 37 °C for 15 min. Ellman reagent (5,5′-dithio-bis(2-nitrobenzoic acid), DTNB, 0.001 mol/L) was added. […] The blank analysis was performed. All the analyses were performed in triplicate. Inhibition rate of experimental sample or positive control group (%) = [(control group-blank background)-(experimental sample or positive control group -sample background)]/(control-blank background) × 100%.

For assay [2], the system named is MAO. Kind of assay: MAO activity assay (total MAO). Format: biochemical. The settings on record: for Inhibition Rate for MAO: compounds concentration 100 µM. On the procedure: The enzyme activity analysis was performed according to the procedure reported by Matsumoto et al. with slight modifications. All materials used in the enzymatic assays were purchased from Aladdin Reagent Chemicals. […] The concentrations of the synthesized compounds altered from 0.001 µM to 100 µM for the MAO-A and -B enzyme activity inhibition. […] The enzymatic reactions were caused by the addition of MAO-A (40 µg/mL) or MAO-B (20 µg/mL), and cultured at 37 °C for 30 min. The enzyme reactions were stopped through the addition of 2N NaOH for 75 µL. […] The inhibitory effect of enzyme activity was calculated as a percentage of product formation compared to the corresponding control with no inhibitor. A control was established to determine the interference of the tested compounds to the fluorescence assay, and the enzyme or substrate was added after the reaction stopped.

Sequence of BChE (P06276 29-602): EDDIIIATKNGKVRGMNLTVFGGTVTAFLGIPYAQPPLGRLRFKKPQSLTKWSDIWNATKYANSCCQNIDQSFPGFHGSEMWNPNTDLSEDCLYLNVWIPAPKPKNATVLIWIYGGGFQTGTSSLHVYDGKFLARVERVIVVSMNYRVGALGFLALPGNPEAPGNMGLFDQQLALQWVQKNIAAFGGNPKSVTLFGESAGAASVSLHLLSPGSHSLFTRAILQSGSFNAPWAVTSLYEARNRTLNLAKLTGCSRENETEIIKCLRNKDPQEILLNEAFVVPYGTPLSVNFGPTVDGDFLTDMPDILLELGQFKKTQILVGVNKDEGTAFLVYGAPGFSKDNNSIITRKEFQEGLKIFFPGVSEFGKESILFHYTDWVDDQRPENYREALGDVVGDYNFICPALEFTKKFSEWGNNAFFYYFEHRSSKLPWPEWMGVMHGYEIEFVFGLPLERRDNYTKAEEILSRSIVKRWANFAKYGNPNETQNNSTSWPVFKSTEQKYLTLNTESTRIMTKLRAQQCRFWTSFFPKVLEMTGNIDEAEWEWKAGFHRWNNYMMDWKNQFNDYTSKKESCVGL

Take `O=C(NCc1ccc(Cl)c(Cl)c1)N1CCc2ccccc2[C@@H]1c1ccccc1` [2z, (S)-N-(3,4-dichlorobenzyl)-1-phenyl-3,4-dihydroisoquinoline-2(1H)-carboxamide]: the inhibition at 100 µM in assay [1] worked out at 12.1%. Moreover, in assay [2], the “Inhibition Rate for MAO” value is 7.40%.
With `O=C(NCc1cccc(C(F)(F)F)c1)N1CCc2ccccc2C1c1ccccc1` (stereo in doubt) [2l, (S)-N-(m-(trifluoromethyl)benzyl)-1-phenyl-3,4-dihydroisoquinoline-2(1H)-carbox-amide], the inhibition at 100 µM in assay [1] worked out at 49.1%.
As for `C#CCN[C@@H]1CCc2ccccc21` [Rasagiline, reference compound], in assay [2], the IC50 was 338 nM and the “Inhibition Rate for MAO” value is 91.75%.
With `N#Cc1ccc(CNC(=O)N2CCc3ccccc3[C@@H]2c2ccccc2)cc1` [2ac, (S)-N-(p-cyanobenzyl)-1-phenyl-3,4-dihydroisoquinoline-2(1H)-carboxamide], the inhibition at 100 µM in assay [1] came out at 17.7%.
Regarding `O=C(NCc1cccc(Cl)c1)N1CCc2ccccc2[C@@H]1c1ccccc1` [2f, (S)-N-(m-chlorobenzyl)-1-phenyl-3,4-dihydroisoquinoline-2(1H)-carboxamide], the inhibition at 100 µM in assay [1] amounted to 3.4%.
As to `O=C(NCc1ccc(C(F)(F)F)cc1)N1CCc2ccccc2C1c1ccccc1` (stereo in doubt) [2m, (S)-N-(p-(trifluoromethyl)benzyl)-1-phenyl-3,4-dihydroisoquinoline-2(1H)-carboxa-mide], the “Inhibition Rate for MAO” value in assay [2] was found to be 35.8%.
`O=C(NCc1ccc(Cl)cc1)N1CCc2ccccc2[C@@H]1c1ccccc1` [2g, (S)-N-(p-chlorobenzyl)-1-phenyl-3,4-dihydroisoquinoline-2(1H)-carboxamide]: in assay [2], the “Inhibition Rate for MAO” value is 21.2%.
Turning to `Cc1cccc(CNC(=O)N2CCc3ccccc3[C@@H]2c2ccccc2)c1` [2q, (S)-N-(m-methylbenzyl)-1-phenyl-3,4-dihydroisoquinoline-2(1H)-carboxamide], in assay [1], the inhibition at 100 µM is 8.7%.
As for `O=C(NCc1c(Cl)cccc1Cl)N1CCc2ccccc2[C@@H]1c1ccccc1` [2y, (S)-N-(2,6-dichlorobenzyl)-1-phenyl-3,4-dihydroisoquinoline-2(1H)-carboxamide], the “Inhibition Rate for MAO” value in assay [2] is reported as 37.7%.
Regarding `O=C(NCc1ccccc1OC(F)(F)F)N1CCc2ccccc2C1c1ccccc1` (stereo in doubt) [2n, (S)-N-(o-(trifluoromethoxy)benzyl)-1-phenyl-3,4-dihydroisoquinoline-2(1H)-carbox-amide], the “Inhibition Rate for MAO” value in assay [2] was determined as 33.0%.
`COc1ccc(CNC(=O)N2CCc3ccccc3[C@@H]2c2ccccc2)cc1OC` [2w, (S)-N-(3,4-dimethoxybenzyl)-1-phenyl-3,4-dihydroisoquinoline-2(1H)-carboxamide]: in assay [1], the inhibition at 100 µM was determined as 9.4%.
Consider `O=C(NCc1ccccc1C(F)(F)F)N1CCc2ccccc2C1c1ccccc1` (stereo in doubt) [2k, (S)-N-(o-(trifluoromethyl)benzyl)-1-phenyl-3,4-dihydroisoquinoline-2(1H)-carboxa-mide], for which, in assay [2], the “Inhibition Rate for MAO” value turned out to be 33.0%.
On to `COc1ccc(CNC(=O)N2CCc3ccccc3[C@@H]2c2ccccc2)cc1` [2u, (S)-N-(p-methoxybenzyl)-1-phenyl-3,4-dihydroisoquinoline-2(1H)-carboxamide], for which the inhibition at 100 µM in assay [1] is 40.7%.
As to `O=C(NCc1c(F)cccc1F)N1CCc2ccccc2[C@@H]1c1ccccc1` [2ab, (S)-N-(2,6-difluorobenzyl)-1-phenyl-3,4-dihydroisoquinoline-2(1H)-carboxamide], in assay [1], the inhibition at 100 µM was 24.9%. The “Inhibition Rate for MAO” value in assay [2] is 33.0%.
Take `O=C(NCc1ccccc1F)N1CCc2ccccc2[C@@H]1c1ccccc1` [2b, (S)-N-(o-fluorobenzyl)-1-phenyl-3,4-dihydroisoquinoline-2(1H)-carboxamide]: the inhibition at 100 µM in assay [1] amounted to 49%.
Regarding `COc1ccccc1CNC(=O)N1CCc2ccccc2[C@@H]1c1ccccc1` [2s, (S)-N-(o-methoxybenzyl)-1-phenyl-3,4-dihydroisoquinoline-2(1H)-carboxamid], in assay [1], the inhibition at 100 µM was found to be 39.6%.
On to `O=C(NCc1ccc(F)cc1F)N1CCc2ccccc2[C@@H]1c1ccccc1` [2aa, (S)-N-(2,4-difluorobenzyl)-1-phenyl-3,4-dihydroisoquinoline-2(1H)-carboxamide], for which the “Inhibition Rate for MAO” value in assay [2] is 32.1%.
With `O=C(NCc1ccccc1Cl)N1CCc2ccccc2[C@@H]1c1ccccc1` [2e, (S)-N-(o-chlorobenzyl)-1-phenyl-3,4-dihydroisoquinoline-2(1H)-carboxamide], the “Inhibition Rate for MAO” value in assay [2] came out at 41.4%.
For the molecule `O=C(NCc1ccc(Cl)cc1Cl)N1CCc2ccccc2[C@@H]1c1ccccc1` [2x, (S)-N-(2,4-dichlorobenzyl)-1-phenyl-3,4-dihydroisoquinoline-2(1H)-carboxamide], the “Inhibition Rate for MAO” value in assay [2] is given as 44.7%.
For `O=C(NCc1ccc(OC(F)(F)F)cc1)N1CCc2ccccc2C1c1ccccc1` (stereo in doubt) [2o, (S)-N-(p-(trifluoromethoxy)benzyl)-1-phenyl-3,4-dihydroisoquinoline-2(1H)-carbox-amide], the “Inhibition Rate for MAO” value in assay [2] is reported as 31.1%.

As a reminder, the inhibition is the share of the control response that was lost under treatment. Broadly, the IC50 is the concentration at which inhibition is half-maximal.
